From the supplement of paper PMC10307832

How the values were obtained:
Experiment in all cases: relative viability (nuclei count vs DMSO), 5 days (fraction); higher = more cells survive
SGI-1776 + OSI-027 = compound: CN1CCC(CNc2ccc3ncc(-c4cccc(OC(F)(F)F)c4)n3n2)CC1 [SGI-1776] + COc1cccc2cc(-c3nc([C@H]4CC[C@H](C(=O)O)CC4)n4ncnc(N)c34)[nH]c12 [OSI-027] (partner 0.5 µM)
Summary of the method: (§1)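 Lung cancer cell lines were pin-tool dosed in 1536-well plates on the day after seeding, with either a lone drug or a fixed anchor-drug dose plus five library-drug doses (not always all listed) in √10 steps. Nuclei were counted on 4× images after 5 days. Relative viability is the ratio of treated-well to vehicle-well nuclei counts, with each value a median of duplicate plates.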

[1] = compound: C1COCCN1C2=NC(=NC3=C2OC4=C3C=CC=N4)C5=CC(=CC=C5)NC(=O)C6=CN=C(C=C6)N + Cc1nc(Nc2ncc(C(=O)Nc3c(C)cccc3Cl)s2)cc(N2CCN(CCO)CC2)n1 [Dasatinib] (partner 0.075 µM)
Summary of the method: as §1

[2] = compound: C1COCCN1C2=NC(=NC3=C2OC4=C3C=CC=N4)C5=CC(=CC=C5)NC(=O)C6=CN=C(C=C6)N + Cc1nc(NC(=O)N2CCC[C@H]2C(N)=O)sc1-c1ccnc(C(C)(C)C(F)(F)F)c1 [Alpelisib] (partner 2 µM)
Summary of the method: as §1

SGI-1776 + Pemetrexed = compound: CN1CCC(CNc2ccc3ncc(-c4cccc(OC(F)(F)F)c4)n3n2)CC1 [SGI-1776] + Nc1nc2[nH]cc(CCc3ccc(C(=O)N[C@@H](CCC(=O)O)C(=O)O)cc3)c2c(=O)[nH]1 [Pemetrexed] (partner 0.2 µM)
Summary of the method: as §1

Cell Line	relative viability (SGI-1776 + OSI-027; first compound 0.08 µM)	relative viability (SGI-1776 + OSI-027; first compound 0.8 µM)	relative viability (SGI-1776 + OSI-027; first compound 2.53 µM)	relative viability (SGI-1776 + OSI-027; first compound 8 µM)	relative viability ([1]; first compound 0.02 µM)	relative viability ([1]; first compound 0.06325 µM)	relative viability ([1]; first compound 0.2 µM)	relative viability ([1]; first compound 0.6325 µM)	relative viability ([1]; first compound 2 µM)	relative viability ([2]; first compound 0.02 µM)	relative viability ([2]; first compound 0.06325 µM)	relative viability ([2]; first compound 0.2 µM)	relative viability ([2]; first compound 0.6325 µM)	relative viability ([2]; first compound 2 µM)	relative viability (SGI-1776 + Pemetrexed; first compound 0.08 µM)	relative viability (SGI-1776 + Pemetrexed; first compound 0.8 µM)	relative viability (SGI-1776 + Pemetrexed; first compound 2.53 µM)	relative viability (SGI-1776 + Pemetrexed; first compound 8 µM)
EMC-BAC-2	0.355	0.371	0.363	0.319	0.334	0.378	0.317	0.356	0.294	0.794	0.867	0.785	0.707	0.589	0.438	0.452	0.458	0.425
CAL-12T	0.771	0.592	0.652	0.481	0.467	0.519	0.396	0.324	0.338	1.26	1.29	1.26	1.15	0.537	1.31	1.06	1.16	1.28
NCI-H661	0.766	0.867	0.611	0.596	0.88	0.853	0.688	0.736	0.64	0.703	0.698	0.664	0.531	0.728	0.938	0.89	0.917	0.889
SK-MES-1	0.673	0.585	0.649	0.314	0.342	0.406	0.259	0.239	0.244	0.949	1.07	0.984	0.971	0.724	1.11	1	0.999	0.647
NCI-H1437	0.913	0.976	0.819	0.806	0.33	0.431	0.272	0.385	0.264	0.952	1.09	0.788	0.962	0.423	0.3	0.328	0.28	0.265
PC-14	0.857	0.945	0.671	0.0734	0.229	0.229	0.218	0.138	0.175	0.881	1.21	0.917	0.916	0.577	0.14	0.13	0.117	0.101
LK-2	0.247	0.216	0.201	0.159	0.253	0.284	0.245	0.245	0.283	1.07	1.15	1.2	1.06	0.856	0.295	0.352	0.291	0.201
NCI-H1651	0.81	0.683	0.677	0.529	0.482	0.461	0.39	0.4	0.22	0.904	0.915	0.899	0.897	0.443	0.672	0.736	0.604	0.456
LC-2-ad	0.918	0.806	0.973	0.548	0.629	0.716	0.52	0.435	0.417	0.824	0.83	0.893	0.782	0.531	0.286	0.288	0.285	0.254
